Assay results: patent US5374636A, “2,3-trans-disubstituted tropane compounds which have useful pharmaceutical utility” (NeuroSearch A/S, priority 1992, dated 1994)

Experiments:
[1] = test system: reuptake of dopamine in synaptosomes of rat forebmin; assay: Inhibition of reuptake of dopamine in synaptosomes of rat forebrain (3H-dopamine uptake); type: biochemical, rat (male Wistar); conditions: for IC50: rat forebrain synaptosomes, 3H-dopamine 1×10^-9 M, 10 min at 37° C., read-out: Dopamine reuptake inhibiting activity (IC50)
Method: Fresh whole forebmin (at 0°-4° C.) from male Wistar rats (150-200 g) is homogenized in a glass homogenizer with a teflon pestle in 20×volumes 0.32M sucrose. The homogenate is centrifuged at 1000×g (~2900 rpm) for 10 min. The pellet is discarded and the supernatant is used for uptake assays.
The samples are thoroughly mixed and incubated 10 min at 37° C. followed by 2 min at 0° C. After incubation the samples are poured directly onto Whatman GF/C glass fibre filters under suction and immediately washed with 2×5 ml ice-cold 0.9% saline (NaCI) buffer. To the filter is added 3 ml of scintillation fluid, and the amount of radioactivity on the filters is determined by conventional liquid scintillation counting.

[2] = test system: excitatory Iocomotor and rearing responses; assay: Classification of behavioural excitatory locomotor and rearing responses (side effect); type: in vivo, rat (male SPF wistar)
Method: Male SPF wistar rats weighing 200-250 g were used for the gross behavioural studies. All rats were transferred the day before the experiments to individual cages made of wire netting (floor area 21×27 cm, height 16 cm) at a room temperature of 21°-23° C. […] The behavioural elements here classified as rearing (i.e. standing up on the hindlegs) and Iocomotor activities (i.e. forward running activities) were registered, and the maximum peak effects were classified according to the following rating scale:
0=non-existent or very infrequent
++=moderate in intensity and frequency
+++=very strong, continuous and intense

[3] = test system: abnormal stereotyped behaviour; assay: Classification of the abnormal stereotyped behaviour (side effect); type: in vivo, rat
Excerpt: Classification of the abnormal stereotyped behaviour.
Backward locomotion may occasionally be observed.
+=only stereotyped sniffing
++=stereotyped sniffing and episodic licking
+++=Continuous licking and/or biting gnawing

[4] = test system: serotonine (5-hydroxythryptamine, 5-HT) reuptake; assay: Serotonin (5-HT) reuptake inhibition; type: biochemical; conditions: in combination with dopamine reuptake inhibition

| SMILES | IC50 [1] | Activity (excitatory locomotor and rearing responses, maximum peak effect) ([2]; 50 mg/kg i.p.) | Activity (high intensity abnormal stereotyped behaviour) ([3]; 50 mg/kg i.p.) | side effects as measured by excitatory locomotor activity and rearing responses as well as abnormal stereotyped behaviour ([2]; every relevant dosing level tested) | dopamine reuptake inhibiting activity (in words) [1] | serotonine (5-HT) reuptake inhibiting activity [4] | Activity (high intensity abnormal stereotyped behaviour) ([3]; 25 mg/kg i.p.) |
| --- | --- | --- | --- | --- | --- | --- | --- |
| COC(=O)[C@@H]1[C@@H](c2ccc(Cl)c(Cl)c2)C[C@@H]2CC[C@H]1N2C [(1R,2R,3S)-2-carbomethoxy-3-(3,4-dichlorophenyl)tropane] | 16 nM | + | +++ | – | – | – | – |
| COC(=O)[C@@H]1[C@@H](c2ccc(F)cc2)C[C@@H]2CC[C@H]1N2C [trans isomer of Win 35,428, (1R,2R,3S)-2-carbomethoxy-3-(4-fluorophenyl)tropane] | – | – | – | essentially or totally devoid of side effects | – | – | – |
| CN1[C@H]2CC[C@@H]1[C@H](COc1ccc(Cl)cc1)[C@@H](c1ccc(F)cc1)C2.Cl [(1R,2R,3S)-2-(4-Chlorophenoxy-methyl)-3-(4-fluorophenyl)tropane, hydrochloride] | 390 nM | – | 0 | – | potent dopamine reuptake inhibiting activity | very potent serotonine (5-hydroxythryptamine, 5-HT) reuptake inhibiting activity | – |
| COC(=O)[C@@H]1[C@@H](c2ccc3ccccc3c2)C[C@@H]2CC[C@H]1N2C [(1R,2R,3S)-2-carbomethoxy-3-(2-naphthyl)tropane] | 100 nM | – | – | – | – | – | 0 |
